ChEMBL document CHEMBL2040800 (J Med Chem, 2012)
Values after ≈ are worked out from the molar mass of the structure shown.

What was measured:
[1] = Partition coefficient, log D of the compound at pH 7.4 by phase gradient HPLC analysis; type: physicochemical; conditions: octanol/water
[2] = Intrinsic clearance in human liver microsomes at 1 uM up to 60 mins; type: ADME, Microsome; conditions: read-out: CLH
[3] = Half life in human liver microsomes at 1 uM; type: ADME, Microsome
[4] = Kinetic solubility of the compound in phosphate buffer after 30 mins by nephelometry at pH 6.5; type: physicochemical; conditions: read-out: Kinetic_solubility
[5] = Plasma protein binding in human by reverse phase gradient HPLC analysis; type: ADME, cell-free; conditions: read-out: PPB (converted)
Plasmodium falciparum [6] = experiment: Antimalarial activity against chloroquine-resistant Plasmodium falciparum K1 after 24 hrs by hypoxanthine incorporation assay; type: functional, organism-based; conditions: K1, 24 h
Plasmodium falciparum [7] = experiment: Antimalarial activity against chloroquine-sensitive Plasmodium falciparum NF54 after 24 hrs by hypoxanthine incorporation assay; type: functional, organism-based; conditions: NF54, 24 h
Plasmodium falciparum [8] = experiment: Antimalarial activity against ring stage Plasmodium falciparum Dd2 at 1.82 uM after 72 hrs by DAPI-staining based confocal microscopy; type: functional
Plasmodium falciparum [9] = experiment: Antimalarial activity against ring stage Plasmodium falciparum 3D7 at 1.82 uM after 72 hrs by DAPI-staining based confocal microscopy; type: functional
Plasmodium berghei [10] = experiment: Antimalarial activity against Plasmodium berghei ANKA expressing GFP infected in Sprague-Dawley rat assessed as mean survival days of host at 50 mg/kg, po administered as 4 doses; type: functional
Plasmodium berghei [11] = experiment: Antimalarial activity against Plasmodium berghei ANKA expressing GFP infected in Sprague-Dawley rat assessed as reduction in parasitemia at 50 mg/kg, po administered as 4 doses measured on day 4 post-infection by flow cytometry; type: functional; set-up: scale not given: the % may be the effect or the level left
Plasmodium berghei [12] = experiment: Antimalarial activity against Plasmodium berghei ANKA expressing GFP infected in Sprague-Dawley rat assessed as mean survival days of host at 30 mg/kg, po administered as single dose; type: functional
Plasmodium berghei [13] = experiment: Antimalarial activity against Plasmodium berghei ANKA expressing GFP infected in Sprague-Dawley rat assessed as mean survival days of host at 100 mg/kg, po administered as single dose; type: functional
Plasmodium berghei [14] = experiment: Antimalarial activity against Plasmodium berghei ANKA expressing GFP infected in Sprague-Dawley rat assessed as reduction in parasitemia at 100 mg/kg, po administered as single dose measured on day 3 post-infection by flow cytometry; type: functional; set-up: scale not given: the % may be the effect or the level left
Plasmodium berghei [15] = experiment: Antimalarial activity against Plasmodium berghei ANKA expressing GFP infected in Sprague-Dawley rat assessed as reduction in parasitemia at 30 mg/kg, po administered as single dose measured on day 3 post-infection by flow cytometry; type: functional; set-up: scale not given: the % may be the effect or the level left
Plasmodium berghei [16] = experiment: Antimalarial activity against Plasmodium berghei ANKA expressing GFP infected in Sprague-Dawley rat assessed as mean survival days of host at 10 mg/kg, po administered as single dose; type: functional
Plasmodium berghei [17] = experiment: Antimalarial activity against Plasmodium berghei ANKA expressing GFP infected in Sprague-Dawley rat assessed as reduction in parasitemia at 10 mg/kg, po administered as single dose measured on day 3 post-infection by flow cytometry; type: functional; set-up: scale not given: the % may be the effect or the level left
Plasmodium berghei [18] = experiment: Antimalarial activity against Plasmodium berghei ANKA expressing GFP infected in Sprague-Dawley rat assessed as mean survival days of host at 3 mg/kg, po administered as single dose; type: functional
Plasmodium berghei [19] = experiment: Antimalarial activity against Plasmodium berghei ANKA expressing GFP infected in Sprague-Dawley rat assessed as reduction in parasitemia at 3 mg/kg, po administered as single dose measured on day 3 post-infection by flow cytometry; type: functional; set-up: scale not given: the % may be the effect or the level left

Row | Compound | chromatographic logD [1] | microsomal CLint at 1 µM [2] | half-life at 1 µM [3] | solubility kinetic at 0.5 h [4] | IC50 (Plasmodium falciparum [6]) | IC50 (Plasmodium falciparum [7]) | also measured
1 | Cc1ccc(-c2cc(-c3ccc(S(C)(=O)=O)cc3)cnc2N)c2cccnc12 | 2.6 | 16 µL/min/mg | 1.77 h | 6.3 µg/mL (≈ 16.2 µM) | 33 nM | 36 nM | fraction unbound [5]: 0.056
2 | CS(=O)(=O)c1ccc(-c2cnc(N)c(-c3ccc(C(F)(F)F)c(F)c3)c2)cc1 | 3.1 | 14 µL/min/mg | 2.05 h | 1.6 µg/mL (≈ 3.9 µM) | 58 nM | 78 nM | fraction unbound [5]: 0.052
3 | COc1ncccc1-c1cc(-c2ccc(S(C)(=O)=O)cc2)cnc1N | – | – | – | – | 1110 nM | 1230 nM | –
4 | Cc1ccc(-c2cc(-c3ccc(S(C)(=O)=O)cc3)cnc2N)cc1C(F)(F)F | 3.6 | 23 µL/min/mg | 1.25 h | 1.6 µg/mL (≈ 3.94 µM) | 19 nM | 21 nM | fraction unbound [5]: 0.031
5 | COc1ccc(-c2cnc(N)c(-c3ccc(O)c(OC)c3)c2)cc1 | – | – | – | – | – | – | Activity (Plasmodium falciparum [8]): 50%; Activity (Plasmodium falciparum [9]): 50%
6 | CS(=O)(=O)c1ccc(-c2cnc(N)c(-c3ccc(S(C)(=O)=O)cc3)c2)cc1 | 2 | < 5 µL/min/mg | > 5.83 h | 6.3 µg/mL (≈ 15.7 µM) | 80 nM | 80 nM | MSD (Plasmodium berghei [10]): 15 days; Activity (Plasmodium berghei [11]): 99.6%
7 | CS(=O)(=O)c1ccc(-c2cnc(N)c(-c3cnc(N)nc3)c2)cc1 | – | – | – | – | 120 nM | 120 nM | –
8 | CS(=O)(=O)c1ccc(-c2cnc(N)c(-c3ccc(OCCN4CCCC4)cc3)c2)cc1 | – | – | – | – | 2160 nM | 2070 nM | –
9 | CS(=O)(=O)c1ccc(-c2cnc(N)c(-c3ccoc3)c2)cc1 | – | – | – | – | 1120 nM | 1130 nM | –
10 | CS(=O)(=O)c1ccc(-c2cnc(N)c(-c3ccc(CO)nc3)c2)cc1 | 1.2 | < 7 µL/min/mg | > 4.17 h | 25 µg/mL (≈ 70.3 µM) | 169 nM | 171 nM | fraction unbound [5]: 0.541
11 | CS(=O)(=O)c1ccc(-c2cnc(N)c(-c3cccc(C(F)(F)F)c3)c2)cc1 | 3.3 | < 7 µL/min/mg | > 4.17 h | 3.1 µg/mL (≈ 7.9 µM) | 90 nM | 110 nM | fraction unbound [5]: 0.059
12 | CS(=O)(=O)c1ccc(-c2cnc(N)c(-c3cccc(OC(F)(F)F)c3)c2)cc1 | – | – | – | – | 180 nM | 190 nM | –
13 | CS(=O)(=O)c1ccc(-c2cnc(N)c(-c3ccc(C#N)cc3)c2)cc1 | 2.4 | < 5 µL/min/mg | > 5.83 h | 1.6 µg/mL (≈ 4.58 µM) | 150 nM | 160 nM | MSD (Plasmodium berghei [10]): >30 days; MSD (Plasmodium berghei [12]): 10 days; MSD (Plasmodium berghei [13]): 14 days; Activity (Plasmodium berghei [11]): 99.7%; Activity (Plasmodium berghei [14]): >99.4%; Activity (Plasmodium berghei [15]): 99.1%
14 | COc1ncc(-c2cc(-c3ccc(S(C)(=O)=O)cc3)cnc2N)cc1Cl | – | – | – | – | 2130 nM | 2230 nM | –
15 | CS(=O)(=O)c1ccc(-c2cnc(N)c(-c3ccc(C(F)(F)F)cc3Cl)c2)cc1 | – | – | – | – | 818 nM | 806 nM | –
16 | CS(=O)(=O)c1ccc(-c2cnc(N)c(-c3ccc(N4CCOCC4)cc3)c2)cc1 | – | – | – | – | 2400 nM | 2460 nM | –

Row | Compound | chromatographic logD [1] | microsomal CLint at 1 µM [2] | half-life at 1 µM [3] | solubility kinetic at 0.5 h [4] | IC50 (Plasmodium falciparum [6]) | IC50 (Plasmodium falciparum [7]) | also measured
17 | CS(=O)(=O)c1ccc(-c2cnc(N)c(-c3ccc(-n4cccn4)cc3)c2)cc1 | – | – | – | – | 220 nM | 230 nM | –
18 | CN(C)CCNC(=O)c1ccc(-c2cc(-c3cc(F)c(F)c(F)c3)cnc2N)cc1 | – | – | – | – | – | – | Activity (Plasmodium falciparum [8]): 50%; Activity (Plasmodium falciparum [9]): 50%
19 | CS(=O)(=O)c1ccc(-c2cnc(N)c(-c3ccc4nonc4c3)c2)cc1 | – | – | – | – | 520 nM | 470 nM | –
20 | CS(=O)(=O)c1ccc(-c2cnc(N)c(-c3ccc(F)nc3)c2)cc1 | 1.1 | < 7 µL/min/mg | 4.12 h | 25 µg/mL (≈ 72.8 µM) | 500 nM | 640 nM | fraction unbound [5]: 0.431
21 | CS(=O)(=O)c1ccc(-c2cnc(N)c(-c3cccc(C(=O)NCCO)c3)c2)cc1 | – | – | – | – | 634 nM | 603 nM | –
22 | CS(=O)(=O)c1ccc(-c2cnc(N)c(-c3ccc4nccnc4c3)c2)cc1 | – | – | – | – | 590 nM | 620 nM | –
23 | Nc1ncc(-c2ccc(Cl)cc2)cc1-c1cccc(CO)c1 | – | – | – | – | – | – | Activity (Plasmodium falciparum [8]): 50%; Activity (Plasmodium falciparum [9]): 50%
24 | CS(=O)(=O)c1ccc(-c2cnc(N)c(-c3ccc(N4CCCC4)nc3)c2)cc1 | – | – | – | – | 540 nM | 456 nM | –
25 | COc1cc(-c2cc(-c3ccc(S(C)(=O)=O)cc3)cnc2N)ccc1O | 1.9 | 17 µL/min/mg | 1.72 h | 6.3 µg/mL (≈ 17 µM) | 49 nM | 49 nM | Activity (Plasmodium falciparum [8]): >80%; Activity (Plasmodium falciparum [9]): >80%; fraction unbound [5]: 0.172
26 | COc1ncc(-c2cc(-c3ccc(S(C)(=O)=O)cc3)cnc2N)cn1 | – | – | – | – | 280 nM | 260 nM | –
27 | CNC(=O)c1ccc(-c2cc(-c3ccc(S(C)(=O)=O)cc3)cnc2N)cc1 | 1.7 | < 5 µL/min/mg | > 5.83 h | 25 µg/mL (≈ 65.5 µM) | 71 nM | 79 nM | MSD (Plasmodium berghei [10]): 9 days; MSD (Plasmodium berghei [12]): 7 days; MSD (Plasmodium berghei [13]): 6 days; fraction unbound [5]: 0.182; Activity (Plasmodium berghei [11]): 99.7%; Activity (Plasmodium berghei [14]): 98%; Activity (Plasmodium berghei [15]): 77%
28 | CS(=O)(=O)c1ccc(-c2cnc(N)c(-c3cccnc3)c2)cc1 | – | – | – | – | 818 nM | 575 nM | –
29 | Cc1nc2cc(-c3cc(-c4ccc(S(C)(=O)=O)cc4)cnc3N)ccc2s1 | – | – | – | – | 330 nM | 390 nM | –
30 | CCN(CC)CCCC(C)Nc1ccnc2cc(Cl)ccc12 (stereo unspecified) [CHLOROQUINE] | – | – | – | – | – | – | MSD (Plasmodium berghei [12]): 9 days; MSD (Plasmodium berghei [16]): 7 days; Activity (Plasmodium berghei [17]): 99.5%; MSD (Plasmodium berghei [13]): 12 days; MSD (Plasmodium berghei [18]): 7 days; Activity (Plasmodium berghei [19]): 83%; Activity (Plasmodium berghei [15]): 99.7%
31 | CS(=O)(=O)c1ccc(-c2cnc(N)c(-c3ccnc(C(F)(F)F)c3)c2)cc1 | – | – | – | – | 155 nM | 181 nM | –
